The NIST ThermoML archive (doi:10.1021/acs.jced.5b00936)

Legend:
[1] = for viscosity / mass density: 100 kPa, Liquid; for viscosity: Concentric cylinders viscometry; for mass density: Vibrating tube method; for Triple point temperature: Crystal, DSC
[2] = refractive index (Na D-line) (dimensionless); settings: 100 kPa, Liquid, Standard Abbe refractometry

C[N+](C)(C)CCO.O=S(=O)([O-])CC(O)CNC(CO)(CO)CO (configuration not stated)
Settings	mass density, [1] [kg/m3]	refractive index, [2]	viscosity, [1] [mPa·s]
323.15 K	–	1.50991	–
328.15 K	1316.4	1.50884	56778
333.15 K	1313.3	1.50769	34168
338.15 K	1310.3	1.50654	21501
343.15 K	1307.4	1.50552	14013
348.15 K	1304.6	1.5044	9355.9
353.15 K	1301.8	1.50327	6385.4

CCCC[N+](CCCC)(CCCC)CCCC.O=S(=O)([O-])CC(O)CNC1CCCCC1
Settings	mass density, [1] [kg/m3]	refractive index, [2]	viscosity, [1] [mPa·s]
308.15 K	1020.4	1.48329	41227
313.15 K	1017.3	1.48189	22114
318.15 K	1014.4	1.48037	12579
323.15 K	1011.5	1.47937	7480.4
328.15 K	1008.6	1.47772	4609.3
333.15 K	1005.7	1.47617	2935.7
338.15 K	1002.8	1.47449	1926.8
343.15 K	999.9	1.47291	1299.4
348.15 K	997.2	1.47137	898.5
353.15 K	994.3	1.46985	635.7

CCCC[N+](CCCC)(CCCC)CCCC.O=S(=O)([O-])CC(O)CNC(CO)(CO)CO
Settings	Triple point temperature [K]
[1]	364.15

CCCC[N+](CCCC)(CCCC)CCCC.O=S(=O)([O-])CCN(CCO)CCO
Settings	mass density, [1] [kg/m3]	refractive index, [2]	viscosity, [1] [mPa·s]
288.15 K	–	1.49093	–
293.15 K	–	1.48966	–
298.15 K	–	1.48834	–
303.15 K	–	1.48706	–
308.15 K	–	1.48577	–
313.15 K	1052.4	1.48445	12001
318.15 K	1049.6	1.48317	7582.5
323.15 K	1046.8	1.48185	4970.6
328.15 K	1044	1.48052	3346.6
333.15 K	1041.2	1.4792	2305.7
338.15 K	1038.4	1.47784	1621.8
343.15 K	1035.6	1.47646	1163.2
348.15 K	1032.8	1.47502	848.3
353.15 K	1030.1	1.47363	630

C[N+](C)(C)CCO.O=S(=O)([O-])CC(O)CN1CCOCC1 (configuration not stated)
Settings	mass density, [1] [kg/m3]	refractive index, [2]	viscosity, [1] [mPa·s]
308.15 K	1235.3	1.49778	49189
313.15 K	1232	1.49658	28090
318.15 K	1228.7	1.49531	16897
323.15 K	1225.6	1.49453	10898
328.15 K	1222.5	1.49323	6933.2
333.15 K	1219.5	1.49185	4600.3
338.15 K	1216.5	1.48995	3099.4
343.15 K	1213.5	1.48831	2158.8
348.15 K	1211.6	1.48671	1545.5
353.15 K	1209.7	1.4852	1122.3

C[N+](C)(C)CCO.O=S(=O)([O-])CC(O)CNC1CCCCC1 (configuration not stated)
Settings	Triple point temperature [K]
[1]	365.15

CCCC[P+](CCCC)(CCCC)CCCC.O=S(=O)([O-])CC(O)CN1CCOCC1 [tetrabutylphosphonium 2-hydroxy-3-morpholinopropanesulfonate]
Settings	mass density, [1] [kg/m3]	refractive index, [2]	viscosity, [1] [mPa·s]
288.15 K	1062.9	1.4959	22869
293.15 K	1059.9	1.49447	12430
298.15 K	1056.8	1.49299	7312.9
303.15 K	1053.7	1.49152	4493.6
308.15 K	1050.5	1.48999	2859.8
313.15 K	1047.5	1.48836	1889.2
318.15 K	1044.4	1.4866	1277
323.15 K	1041.3	1.48573	886.7
328.15 K	1038.2	1.4841	630.4
333.15 K	1035.1	1.48239	457.8
338.15 K	1032.1	1.48069	339.2
343.15 K	1029.1	1.47908	255.6
348.15 K	1026.2	1.47761	195.8
353.15 K	–	1.47622	152.3

CCCC[N+](CCCC)(CCCC)CCCC.O=S(=O)([O-])CC(O)CN1CCOCC1 [tetrabutylammonium 2-hydroxy-3-morpholinopropanesulfonate]
Settings	mass density, [1] [kg/m3]	refractive index, [2]	viscosity, [1] [mPa·s]
308.15 K	1051.2	1.48328	34148
313.15 K	1048.2	1.48188	18392
318.15 K	1045.3	1.48038	10603
323.15 K	1042.3	1.47873	6381.1
328.15 K	1039.4	1.47693	3976.3
333.15 K	1035.8	1.47525	2571.7
338.15 K	1033.1	1.47377	1702.9
343.15 K	1030.4	1.47242	1158.3
348.15 K	1027.6	1.47111	807.1
353.15 K	1024.7	1.46984	574.9

CCCC[P+](CCCC)(CCCC)CCCC.O=S(=O)([O-])CC(O)CNC(CO)(CO)CO
Settings	Triple point temperature [K]
[1]	369.15

C[N+](C)(C)CCO.O=S(=O)([O-])CCN(CCO)CCO
Settings	mass density, [1] [kg/m3]	refractive index, [2]	viscosity, [1] [mPa·s]
293.15 K	1248	–	33236
298.15 K	1244.8	1.50047	20518
303.15 K	1241.8	1.49937	13056
308.15 K	1238.9	1.49826	8631.6
313.15 K	1236.1	1.49716	5848.4
318.15 K	1233.3	1.49602	4045.8
323.15 K	1230.5	1.49476	2861
328.15 K	1227.7	1.49317	2061.7
333.15 K	1224.9	1.49148	1526.8
338.15 K	1222.2	1.49052	1136.6
343.15 K	1219.5	1.48921	858.1
348.15 K	1216.8	1.48749	658.8
353.15 K	1214.1	1.48633	512.7

CCCC[P+](CCCC)(CCCC)CCCC.O=S(=O)([O-])CCN(CCO)CCO
Settings	mass density, [1] [kg/m3]	refractive index, [2]	viscosity, [1] [mPa·s]
288.15 K	1066.8	1.49778	41313
293.15 K	1063.9	1.4964	24078
298.15 K	1061	1.49502	14082
303.15 K	1058.1	1.49365	8504.9
308.15 K	1055.3	1.49333	5315.8
313.15 K	1052.4	1.49198	3370.9
318.15 K	1049.6	1.49061	2199.4
323.15 K	1046.8	1.48921	1356.9
328.15 K	1044	1.48744	871
333.15 K	1041.2	1.4859	611.8
338.15 K	1038.4	1.48437	458.9
343.15 K	1035.6	1.48287	352.3
348.15 K	1032.8	1.48142	273.6
353.15 K	1030.1	1.48003	214.5

CCCC[P+](CCCC)(CCCC)CCCC.O=S(=O)([O-])CC(O)CNC1CCCCC1
Settings	mass density, [1] [kg/m3]	refractive index, [2]	viscosity, [1] [mPa·s]
288.15 K	1037.4	1.49654	32956
293.15 K	1034.2	1.49497	17587
298.15 K	1031.1	1.49313	10098
303.15 K	1028.2	1.49162	6481.6
308.15 K	1025.1	1.48983	3796
313.15 K	1022.1	1.48782	2441.9
318.15 K	1019	1.48724	1624.2
323.15 K	1016	1.48547	1109.7
328.15 K	1012.9	1.48368	779.6
333.15 K	1009.8	1.48202	558.2
338.15 K	1006.8	1.48045	409
343.15 K	1003.8	1.47902	304.6
348.15 K	1000.9	1.47764	231
353.15 K	997.9	1.4763	177.9
